Experimental data from US11161876B2, “Anti-inflammatory nanofibers” (Northwestern University, priority 2015, dated 2021).
* marks the point of attachment. C16 alkyl = CCCCCCCCCCCCCCCC*

Key:
[1] = test system: Rat Bladder Augmentation Model; experiment: Lectin labelling of functional blood vessels in regenerated bladder; format: in vivo; details: 5W post-augmentation
Experimental: In order to determine whether blood vessels in regenerating tissue underwent functional angiogenesis, a fluorochrome conjugated tomato lectin was injected into the animals immediately prior to euthanization to label potential angiogenic vessels. […] Magnification 400× (Scale bar, 50 μm).

[2] = test system: Rat Bladder Augmentation Model; experiment: Bladder capacity measurement of augmented bladders; format: in vivo; details: 5 weeks post-augmentation vs pre-surgery; means ± SE
Experimental: Athymic female rats (weighing ˜200 g and 8-10 weeks old; National Cancer Institute Animal Production Program) underwent bladder augmentation (ref. 15; herein incorporated by reference in its entirety). Athymic rats were chosen for this study to solely examine the innate immune response to inflammation without influence of the adaptive immune response. In order to induce anesthesia, animals were given intraperitoneal injections of 60 mg/kg ketamine and 5 mg/kg xylazine. A second injection consisting of Buprenex (1 mg/kg) was administered subcutaneously to alleviate any pain/discomfort during and following surgical procedures. An approximate 1.5 cm midline vertical skin incision was created to expose the abdominal fascia and muscles. This was immediately followed by the separation of the wall leading to the identification of the bladder. An approximate 70% supratrigonal cystectomy was performed from anterior to posterior creating a clamshell. Immediately prior to bladder augmentation procedures, samples of the pro-inflammatory biological scaffold, small intestinal submucosa (SIS (0.5×0.5 cm); Cook Biotech.) (refs. 12,13,16; herein incorporated by reference in their entireties) were thoroughly dip-coated separately in one of the previously described AIF-PAs following gelation procedures. The sections of SIS were dip-coated for approximately 20 seconds and allowed to adhere to the SIS for an additional 30 seconds. Dip-coating procedures were performed at room temperature in air. […]
The bladders of anesthetized athymic rats were exposed through the abdomen as previously described. […] Continuous reading of the transvesical pressure was measured and plotted using LabChart 7.3 software (AD Instruments). […] Bladder capacity was measured by a modified protocol (ref. 13; herein incorporated by reference in its entirety). […]

CD206+ M2 macrophages = experiment: M2 macrophage subtype (CD206) distribution in regenerating bladder tissue; format: in vivo, rat; details: for M2 macrophage levels, in words: 10 days to 5 weeks
Experimental: Athymic female rats (weighing ˜200 g and 8-10 weeks old; National Cancer Institute Animal Production Program) underwent bladder augmentation (ref. 15; herein incorporated by reference in its entirety). Athymic rats were chosen for this study to solely examine the innate immune response to inflammation without influence of the adaptive immune response. In order to induce anesthesia, animals were given intraperitoneal injections of 60 mg/kg ketamine and 5 mg/kg xylazine. A second injection consisting of Buprenex (1 mg/kg) was administered subcutaneously to alleviate any pain/discomfort during and following surgical procedures. An approximate 1.5 cm midline vertical skin incision was created to expose the abdominal fascia and muscles. This was immediately followed by the separation of the wall leading to the identification of the bladder. An approximate 70% supratrigonal cystectomy was performed from anterior to posterior creating a clamshell. Immediately prior to bladder augmentation procedures, samples of the pro-inflammatory biological scaffold, small intestinal submucosa (SIS (0.5×0.5 cm); Cook Biotech.) (refs. 12,13,16; herein incorporated by reference in their entireties) were thoroughly dip-coated separately in one of the previously described AIF-PAs following gelation procedures. The sections of SIS were dip-coated for approximately 20 seconds and allowed to adhere to the SIS for an additional 30 seconds. Dip-coating procedures were performed at room temperature in air. The cystectomized bladder defect was then augmented with: 1) SIS (non-AIF-PA coated SIS; n=8 animals over both time-points); 2) AIF-PA1 coated SIS (denoted as SIS/AIF-PA1; n=11 animals over both time-points); 3) AIF-PA2 coated SIS (denoted as SIS/AIF-PA2; n=8 animals over both time-points); 4) AIF-PA3 coated SIS (denoted as SIS/AIF-PA3; n=3); 5) AIF-PA4 coated SIS (denoted as SIS/AIF-PA4; n=3 animals); 6) AIF-PA5 coated SIS (denoted as SIS/AIF-PA5; n=3 animals); and 7) AIFC-PA6 coated SIS (denoted as SIS/AIFC-PA6; n=9 animals over both time-points). The bladder was finally covered with omentum after being closed in a watertight manner utilizing 7-0 polyglactin suture. The abdominal wall was then closed in a single layer with 5-0 ethibond running suture and the skin re-approximated with 9 mm autoclips. Each group was sacrificed at 10 day and 5 week time-points.
Tissue sections comprised of SIS alone, SIS/AIF-PA1, SIS/AIF-PA2, and SIS/AIF-PA6 augmentations were subjected to immunofluorescence staining by initially undergoing antigen retrieval which consisted of 15 min of boiling in citrate buffer (0.01M citrate solution, pH 6.0 with 0.05% Tween-20) followed by cooling at room temperature for approximately 20 minutes. The antibody staining process consisted of a blocking step for 15 min in bovine serum albumin (BSA, 5 mg/ml) followed by a 40 minutes incubation at room temperature with the primary antibody. After washing with DPBS, slides were incubated for 30 min with a secondary antibody and eventually rinsed with DPBS and air dried. Slides were mounted with Vectashield (Vector Laboratories). Primary antibodies were directed against epitopes for the inflammatory markers CD68 (macrophage) (refs. 18,19; herein incorporated by reference in their entireties) MPO (neutrophil) (ref. 20; herein incorporated by reference in its entirety) or the inflammation-related proteins IL1β, TNFα, IL-10, IL-13, CD206 (M2 macrophage) (refs. 21-25; herein incorporated by reference in their entireties) and CD86 (M1 macrophage) (ref. 26; herein incorporated by reference in its entirety). Antibodies directed against the ECM in regenerating bladder tissue (including COL4A3 and fibronectin) were also utilized. Alexa Red 555 or FITC conjugated secondary antibodies (Molecular Probes) were utilized for visualization (ref. 15; herein incorporated by reference in its entirety). […]

C16-VVVAAAEEEHDMNKVLDL (SEQ ID NO:2) ({C16 alkyl}-VVVAAAEEEHDMNKVLDL-NH2) [SIS/AIF-PA2, anti-inflammatory peptide amphiphile, tested dip-coated on small intestinal submucosa (SIS) scaffold]
functional angiogenesis of newly formed blood vessels (lectin) [1]: functional, patent blood vessels | Bladder Capacity Recovery [2]: 104.4 ± 6.7% | number of M2 macrophages (CD206+ M2 macrophages; 5W post-augmentation): 224.7±39.0 cells/mm^2 | M2 macrophage levels, in words (CD206+ M2 macrophages): Comparatively low numbers

C16-VVVAAAEEEKLMSQKMVD (SEQ ID NO:6) ({C16 alkyl}-VVVAAAEEEKLMSQKMVD-NH2) [SIS/AIFC-PA6, reference compound]
Bladder Capacity Recovery [2]: 105.4 ± 5.1% | number of M2 macrophages (CD206+ M2 macrophages; 5W post-augmentation): 539.3±46.7 cells/mm^2 | number of M2 macrophages (CD206+ M2 macrophages; 10D post-augmentation): 842.5±18.9 cells/mm^2

C16-VVVAAAEEEMQMKKVLDS (SEQ ID NO:1) ({C16 alkyl}-VVVAAAEEEMQMKKVLDS-NH2) [SIS/AIF-PA1, anti-inflammatory peptide amphiphile, tested dip-coated on small intestinal submucosa (SIS) scaffold]
functional angiogenesis of newly formed blood vessels (lectin) [1]: functional, patent blood vessels | Bladder Capacity Recovery [2]: 112.1 ± 3.3% | number of M2 macrophages (CD206+ M2 macrophages; 5W post-augmentation): 301.7±23.0 cells/mm^2 | M2 macrophage levels, in words (CD206+ M2 macrophages): further decreased by 5 weeks
